{"source": "patent US20230416801A1", "about": "“ANTIMICROBIC SUSCEPTIBILITY TESTING USING RECURRENT NEURAL NETWORKS” (Beckman Coulter, Inc., priority 2020, published 2023)", "key": {"Pseudomonas aeruginosa [1]": {"tested_on": "Pseudomonas aeruginosa", "test": "Target growth or no growth label determined after 16 hours", "assay_type": "cell-based", "parameters": "key: a value of 1 could be interpreted as a determination that growth would not be inhibited; a value of 0 could be interpreted as a determination that growth would be inhibited", "settings": "growth label after 16 hours", "source_text": "As an illustration of how these types of training approaches could be applied in practice, consider tables 5-12, below. In those tables, tables 5-9 provides GRU kernel weights, GRU recurrent weights, GRU bias weights, dense kernel weights, and a dense bias weight for a model implemented using the Keras API (an open source project governed by the Keras Special Interest Group and available at https://keras.io) and Tensorflow backend (an open source machine learning platform developed by Google, Inc. and available at https://www.tensorflow.org/) comprising a network cluster with 24 GRUs trained to make MIC determinations at 4, 5 and 6 hours based on training data for 56 microorganism strains when combined with various antimicrobials and the various combinations were labeled with growth or no growth information determined after 16 hours. In particular, table 5 provides a 1×72 array, in which the first 24 values would be mapped to Wz, the second 24 values would be mapped to Wr and the third 24 values would be mapped to Wh in an embodiment following FIG. 19. Table 6 provides a 72×24 array, in which the first 24×24 array (i.e., the first 24 bracketed sets of values) would be mapped to Uz, the next 24×24 array would be mapped to Ur and the third 24×24 array would be mapped to Uh in an embodiment following FIG. 19. Table 7 provides a 1×72 array, in which the first 24 values would be mapped to bz, the second 24 values would be mapped to br and the third 24 values would be mapped to bh in an embodiment following FIG. 19. Table 8 provides a 1×1344 array of values which would be multiplied by the output of the combination function 1806 in the dense layer 1807. Table 9 provides a bias value which would be added to the output of the dense layer 1807 before it was provided to the activation function 1808. Table 10 provides growth/no growth determinations made at 4, 5 and 6 hours by a system trained as described above for Pseudomonas aeruginosa and the drug Ceftazidime. Tables 11-12 provide microorganisms and antimicrobials included in the training data described above and for which the model was confirmed to be effective."}, "Pseudomonas aeruginosa [2]": {"tested_on": "Pseudomonas aeruginosa", "test": "Growth/no growth determinations made at 4, 5 and 6 hours by trained recurrent neural network (24 GRU) model from test-well organism counts", "assay_type": "cell-based", "settings": "for 4 Hour Call: model output 0-1 at 4 hours; for 5 Hour Call: model output 0-1 at 5 hours; for 6 Hour Call: model output 0-1 at 6 hours", "source_text": "FIG. 8 provides an illustration of how data that can be used in an optimized AST method 101 can be captured from a test well. Test well 20 is embodied by a “384” style test well, having a clear viewing bottom. The volume of inoculum in test well 20 may be set to 20 microliters to reduce the amount of materials such as bulk diluents required by AST method 101 and/or minimize light artifacts and provide sampling of a consistent number of microbes from the 1:250 dilution of the 0.5 MacFarland inoculum. Decreasing the volume of inoculum in test well 20 generally increases the light artifacts. In some instances, capturing a single vertical plane 103 at 20× objective whereby AST camera 35 is set at 0.33 microns/pixel may be sufficient for sampling the inoculum and ensuring that each individual microbe is recognizable. However, these parameters are configurable and may change as desired by the user or the underlying needs of the system. Capturing three focal sites spaced about 5 microns apart within single vertical plane 103 may also provide a sufficient number of microbes in the sample to count for use in optimized AST method 101. These three focal sites are labeled site 105, site 107, and site 109 in FIG. 8. In an exemplary version of optimized AST method 101, each focal site is approximately 700×700 microns within single vertical plane 103, rather than capturing three sites in three different vertical planes. AST camera 35, optics system 9, and computer 49 are configured to capture an image of each focal site in consecutive time periods, manipulate each of these images, and thereafter use the data derived from these manipulated images to make a MIC determination.\nOnce data extraction step 117 derives the desired information from segmented image 143, image analysis cycle 102 terminates. Optimized AST method 101 iteratively performs image analysis cycle 102 at set time intervals to determine how the microbes in each test well 20 are changing and reacting to the particular antimicrobic dilution pairing. Further, optimized AST method 101 iteratively performs image analysis cycle 102 on each test well 20 associated with the microbes to determine how the microbes are reacting to each concentration of the antimicrobic dilution. For example, presume the microbes being tested are E. coli bacteria and three test wells 20 are being tested, with each test well 20 having a 20-microliter solution therein. The first test well 20 may contain an antimicrobic dilution of 1 microgram per milliliter (μg/ml), the second test well 20 may contain an antimicrobic dilution of 2 μg/ml, and the third test well 20 may contain an antimicrobic dilution of 4 μg/ml. Optimized AST method 101 performs image analysis cycle 102 on each of the three test wells at each set time interval to determine (a) how each antimicrobic dilution is affecting the microbes; and (b) how each antimicrobic dilution is performing relative to the other antimicrobic dilutions. If the data indicates the 1 μg/ml antimicrobic dilution is as effective as the 2 and 4 μg/ml antimicrobic dilutions at neutralizing the microbes, the 1 μg/ml antimicrobic dilution is the MIC.\nIn step 163, the MIC is determined. The determination is based on the data collected during each iteration of image analysis cycle 102 for all of the antimicrobic dilutions for a microbial sample as well as for a control well where no antimicrobial agent was present. As described in the following section, this determination may involve processing the collected data with a machine learning model that had previously been trained to make determinations of whether an antimicrobial dilution in a test well would inhibit growth and then determining the MIC based on the test well with the lowest concentration where the machine learning model made a determination that growth would be inhibited. […]"}}}
{"compound": "CC(C)(O/N=C(\\C(=O)N[C@@H]1C(=O)N2C(C(=O)[O-])=C(C[n+]3ccccc3)CS[C@H]12)c1csc(N)n1)C(=O)O", "note": "[Ceftazidime]", "values": [{"measurement": "Target", "setting": "Pseudomonas aeruginosa [1]; Dilution 0.03", "value": 1}, {"measurement": "Target", "setting": "Pseudomonas aeruginosa [1]; Dilution 0.06", "value": 1}, {"measurement": "Target", "setting": "Pseudomonas aeruginosa [1]; Dilution 0.12", "value": 1}, {"measurement": "Target", "setting": "Pseudomonas aeruginosa [1]; Dilution 0.25", "value": 1}, {"measurement": "Target", "setting": "Pseudomonas aeruginosa [1]; Dilution 0.5", "value": 1}, {"measurement": "Target", "setting": "Pseudomonas aeruginosa [1]; Dilution 1", "value": 1}, {"measurement": "Target", "setting": "Pseudomonas aeruginosa [1]; Dilution 2", "value": 0}, {"measurement": "Target", "setting": "Pseudomonas aeruginosa [1]; Dilution 4", "value": 0}, {"measurement": "Target", "setting": "Pseudomonas aeruginosa [1]; Dilution 8", "value": 0}, {"measurement": "Target", "setting": "Pseudomonas aeruginosa [1]; Dilution 16", "value": 0}, {"measurement": "Target", "setting": "Pseudomonas aeruginosa [1]; Dilution 32", "value": 0}, {"measurement": "Target", "setting": "Pseudomonas aeruginosa [1]; Dilution 64", "value": 0}, {"measurement": "4 Hour Call", "setting": "Pseudomonas aeruginosa [2]; Dilution 0.03", "value": 1}, {"measurement": "5 Hour Call", "setting": "Pseudomonas aeruginosa [2]; Dilution 0.03", "value": 1}, {"measurement": "6 Hour Call", "setting": "Pseudomonas aeruginosa [2]; Dilution 0.03", "value": 1}, {"measurement": "4 Hour Call", "setting": "Pseudomonas aeruginosa [2]; Dilution 0.06", "value": 1}, {"measurement": "5 Hour Call", "setting": "Pseudomonas aeruginosa [2]; Dilution 0.06", "value": 1}, {"measurement": "6 Hour Call", "setting": "Pseudomonas aeruginosa [2]; Dilution 0.06", "value": 1}, {"measurement": "4 Hour Call", "setting": "Pseudomonas aeruginosa [2]; Dilution 0.12", "value": 1}, {"measurement": "5 Hour Call", "setting": "Pseudomonas aeruginosa [2]; Dilution 0.12", "value": 1}, {"measurement": "6 Hour Call", "setting": "Pseudomonas aeruginosa [2]; Dilution 0.12", "value": 1}, {"measurement": "4 Hour Call", "setting": "Pseudomonas aeruginosa [2]; Dilution 0.25", "value": 1}, {"measurement": "5 Hour Call", "setting": "Pseudomonas aeruginosa [2]; Dilution 0.25", "value": 1}, {"measurement": "6 Hour Call", "setting": "Pseudomonas aeruginosa [2]; Dilution 0.25", "value": 1}, {"measurement": "4 Hour Call", "setting": "Pseudomonas aeruginosa [2]; Dilution 0.5", "value": 1}, {"measurement": "5 Hour Call", "setting": "Pseudomonas aeruginosa [2]; Dilution 0.5", "value": 1}, {"measurement": "6 Hour Call", "setting": "Pseudomonas aeruginosa [2]; Dilution 0.5", "value": 1}, {"measurement": "4 Hour Call", "setting": "Pseudomonas aeruginosa [2]; Dilution 1", "value": 0.2105}, {"measurement": "5 Hour Call", "setting": "Pseudomonas aeruginosa [2]; Dilution 1", "value": 0.9399}, {"measurement": "6 Hour Call", "setting": "Pseudomonas aeruginosa [2]; Dilution 1", "value": 0.9518}, {"measurement": "4 Hour Call", "setting": "Pseudomonas aeruginosa [2]; Dilution 2", "value": 0.003836}, {"measurement": "5 Hour Call", "setting": "Pseudomonas aeruginosa [2]; Dilution 2", "value": "4.89E−05"}, {"measurement": "6 Hour Call", "setting": "Pseudomonas aeruginosa [2]; Dilution 2", "value": "3.77E−06"}, {"measurement": "4 Hour Call", "setting": "Pseudomonas aeruginosa [2]; Dilution 4", "value": 0.002258}, {"measurement": "5 Hour Call", "setting": "Pseudomonas aeruginosa [2]; Dilution 4", "value": "7.26E−06"}, {"measurement": "6 Hour Call", "setting": "Pseudomonas aeruginosa [2]; Dilution 4", "value": "2.27E−07"}, {"measurement": "4 Hour Call", "setting": "Pseudomonas aeruginosa [2]; Dilution 8", "value": 0.0001531}, {"measurement": "5 Hour Call", "setting": "Pseudomonas aeruginosa [2]; Dilution 8", "value": 0.0005926}, {"measurement": "6 Hour Call", "setting": "Pseudomonas aeruginosa [2]; Dilution 8", "value": 0.000432}, {"measurement": "4 Hour Call", "setting": "Pseudomonas aeruginosa [2]; Dilution 16", "value": 0.003935}, {"measurement": "5 Hour Call", "setting": "Pseudomonas aeruginosa [2]; Dilution 16", "value": 0.001447}, {"measurement": "6 Hour Call", "setting": "Pseudomonas aeruginosa [2]; Dilution 16", "value": "2.32E−06"}, {"measurement": "4 Hour Call", "setting": "Pseudomonas aeruginosa [2]; Dilution 32", "value": 0.009609}, {"measurement": "5 Hour Call", "setting": "Pseudomonas aeruginosa [2]; Dilution 32", "value": "5.69E−05"}, {"measurement": "6 Hour Call", "setting": "Pseudomonas aeruginosa [2]; Dilution 32", "value": "1.23E−06"}, {"measurement": "4 Hour Call", "setting": "Pseudomonas aeruginosa [2]; Dilution 64", "value": 0.001147}, {"measurement": "5 Hour Call", "setting": "Pseudomonas aeruginosa [2]; Dilution 64", "value": "1.21E−05"}, {"measurement": "6 Hour Call", "setting": "Pseudomonas aeruginosa [2]; Dilution 64", "value": "1.64E−06"}]}
